Broadly, the IC50 is the concentration that gives 50% inhibition.

Structures are written as SMILES.

Data on 64 molecules can be found in patent US9023865B2, “Compounds that are ERK inhibitors” (Merck Sharp & Dohme Corp., priority 2011, dated 2015).

Chain of Active Human ERK2 (hERK2) (P28482 whole entry): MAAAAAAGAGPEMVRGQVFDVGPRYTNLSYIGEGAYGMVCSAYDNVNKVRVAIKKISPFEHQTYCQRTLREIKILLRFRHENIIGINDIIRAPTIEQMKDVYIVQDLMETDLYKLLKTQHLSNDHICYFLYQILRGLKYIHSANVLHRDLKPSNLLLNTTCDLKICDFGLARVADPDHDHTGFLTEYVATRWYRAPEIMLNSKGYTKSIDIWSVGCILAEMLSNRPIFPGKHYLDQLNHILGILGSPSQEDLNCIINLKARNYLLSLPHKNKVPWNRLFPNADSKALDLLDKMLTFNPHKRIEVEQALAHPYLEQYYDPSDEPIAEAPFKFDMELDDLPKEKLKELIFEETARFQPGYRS

The test has as its target Active Human ERK2 (hERK2) (Homo sapiens (Human), UniProt P28482). As to the kind of experiment: Active Human ERK2 (hERK2) Activity Assay (IMAP-FP). Conditions: phosphorylated active hERK2, 30 μM ATP; average; read-out: ERK 2 Human average IC50. The test is classed as biochemical. A digest of the protocol: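 Reaction contains 0.5 nM activated hERK2, 900 nM unlabeled plus 80 nM labeled peptide and 30 μM ATP, run 60 min. Quenched with IMAP binding beads in buffer with 24 mM NaCl; fluorescence polarization read after 60 min binding equilibration.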
Regarding `O=C(NCC1CC1)Nc1cc2[nH]nc(C3CC3)c2cn1` [Example 148], the 50% inhibitory concentration (IC50) is 84.3 nM. As to `C[C@@H](NC(=O)Nc1cc2[nH]nc(C3CCC3)c2cn1)c1ccccn1` [Example 149], the IC50 turned out to be 72.1 nM. Consider `C[C@@H](NC(=O)Nc1cc2[nH]nc(C3CC3)c2cn1)c1ccc(Cl)cc1` [Example 150], for which the IC50 stood at 10.4 nM. Regarding `C[C@@H](NC(=O)Nc1cc2[nH]nc(C3CCC3)c2cn1)c1ccc(Cl)cc1` [Example 151], the IC50 worked out at 11.1 nM. `C[C@@H](NC(=O)Nc1cc2[nH]nc(C3CC3)c2cn1)c1ccccn1` [Example 152]: the IC50 came out at 116 nM.

`O=C(Nc1cc2[nH]nc(C3CC3)c2cn1)NC1CCCOc2ccccc21` (stereo not shown) [Example 153]: the IC50 turned out to be 2.28 nM. With `O=C(Nc1cc2[nH]nc(C3CC3)c2cn1)N[C@@H]1CCOc2ccccc21` [Example 154], the IC50 was 70 nM.

As for `COc1ccc(CNC(=O)Nc2cc3[nH]nc(C4CC4)c3cn2)cc1` [Example 155], the half-maximal inhibitory concentration (IC50) came to 60.1 nM.

On to `CCCCNC(=O)Nc1cc2[nH]nc(C3CC3)c2cn1` [Example 156], for which the IC50 was found to be 42.2 nM. As for `CCNC(=O)Nc1cc2[nH]nc(C3CC3)c2cn1` [Example 157], the IC50 was 253 nM.

Turning to `C[C@@H](NC(=O)Nc1cc2[nH]nc(C3(C)CC3(F)F)c2cn1)c1ccc(F)cc1` (stereo partly drawn) [Example 159, 1-[3-(2,2-difluoro-1-methylcyclopropyl)-1H-pyrazolo[4,3-c]pyridin-6-yl]-3-[(1R)-1-(4-fluorophenyl)ethyl]urea], the IC50 was 610 nM.

In the case of `COC[C@@H](NC(=O)Nc1cc2[nH]nc(C3CC3)c2cn1)c1ccccc1` [Example 160], the IC50 stood at 1.38 nM.

For `[2H]C([2H])([2H])OC[C@@H](NC(=O)Nc1cc2[nH]nc(C3CC3)c2cn1)c1ccccc1` [Example 161], the concentration for half-maximal inhibition (IC50) came out at 5.8 nM.

With `COC[C@@H](NC(=O)Nc1cc2[nH]nc(C3CC3(F)F)c2cn1)c1ccccc1` (stereo partly shown) [Example 163], the IC50 is 4.89 nM. Consider `C[C@@H](NC(=O)Nc1cc2[nH]nc(C3CC3(F)F)c2cn1)c1ccccc1` (stereo partly shown) [Example 164], for which the IC50 was 7.71 nM.

`C[C@@H](NC(=O)Nc1cc2[nH]nc(C3CC3(F)F)c2cn1)c1ccc(F)cc1` (stereo partly shown) [Example 165]: the IC50 was 8.83 nM. Next, `COC[C@@H](NC(=O)Nc1cc2[nH]nc(C3CC3)c2cn1)c1cc(F)ccn1` [Example 168]: 117 nM; `COC[C@@H](NC(=O)Nc1cc2[nH]nc(-c3ccnc(C)c3)c2cn1)c1cc(F)ccn1` [Example 169]: 7.33 nM. With `CCNC(=O)[C@H]1C[C@@H]1c1n[nH]c2cc(NC(=O)N[C@H](COC)c3ccccc3)ncc12` [Example 170, (1S,2S)—N-ethyl-2-(6-(3-((S)-2-methoxy-1-phenylethyl)ureido)-1H-pyrazolo[4,3-c]pyridin-3-yl)cyclopropanecarboxamide], the IC50 was 0.715 nM. Take `CNC(=O)[C@H]1CC1c1n[nH]c2cc(NC(=O)N[C@H](COC)c3ccccc3)ncc12` (stereo partly shown) [Example 171]: the 50% inhibitory concentration (IC50) was 0.97 nM. Take `Cc1cc(-c2n[nH]c3cc(NC(=O)N[C@@H](CN)c4ccccc4)ncc23)ccn1` [Example 172]: the IC50 was 243 nM. On to `CCOC(=O)CCc1n[nH]c2cc(NC(=O)NCc3ccccc3)ncc12` [Example 173, Ethyl 3-(6-(3-benzylureido)-1H-pyrazolo[4,3-c]pyridin-3-yl)propanoate], for which the IC50 was found to be 39.8 nM. With `Cc1cc(-c2n[nH]c3c(C)c(NC(=O)N[C@H](C)c4ccccc4)ncc23)ccn1` [Example 174, (R)-1-(7-Methyl-3-(2-methylpyridin-4-yl)-1H-pyrazolo[4,3-c]pyridin-6-yl)-3-(1-phenylethyl)urea], the IC50 came to 1.58 nM. Consider `CCc1c(NC(=O)N[C@H](C)c2ccccc2)ncc2c(-c3ccnc(C)c3)n[nH]c12` [Example 175], for which the IC50 amounted to 6.68 nM. `Cc1cc(-c2n[nH]c3cc(NC(=O)N[C@@H](C)c4ccccn4)ncc23)ccn1` [Example 176]: the IC50 amounted to 41 nM.

Turning to `Cc1cc(-c2n[nH]c3cc(NC(=O)N[C@H](C)c4ccccn4)ncc23)ccn1` [Example 177], the IC50 came out at 0.914 nM. In the case of `Cc1cc(-c2n[nH]c3cc(NC(=O)N[C@H]4CN(C)C[C@@H]4c4ccccc4C(F)(F)F)ncc23)ccn1` [Example 178, 1-((3R,4S)-1-Methyl-4-(2-(trifluoromethyl)phenyl)pyrrolidin-3-yl)-3-(3-(2-methylpyridin-4-yl)-1H-pyrazolo[4,3-c]pyridin-6-yl)urea], the IC50 was 0.527 nM. In the case of `Cc1cc(-c2n[nH]c3cc(NC(=O)N[C@H]4CN(C)C[C@@H]4c4ccc(F)nc4)ncc23)ccn1` [Example 179], the IC50 was found to be 1.45 nM. As for `Cc1cc(-c2n[nH]c3cc(NC(=O)N[C@@H]4CNC[C@@H]4c4ccccc4)ncc23)ccn1` [Example 180], the IC50 stood at 4.58 nM.

As to `Cc1cc(-c2n[nH]c3cc(NC(=O)N[C@@H]4CN(C)C[C@H]4c4ccccc4)ncc23)ccn1` [Example 181], the IC50 is 0.217 nM. With `Cc1cc(-c2n[nH]c3cc(NC(=O)N[C@H]4CN(C)C[C@@H]4c4ccccc4)ncc23)ccn1` [Example 182], the IC50 amounted to 18.8 nM. As for `Cc1cc(-c2n[nH]c3cc(NC(=O)N[C@H]4CN(C)C[C@@H]4c4ccccc4F)ncc23)ccn1` [Example 183], the IC50 worked out at 0.662 nM. As for `Cc1cc(-c2n[nH]c3cc(NC(=O)N[C@@H]4CN(C)C[C@H]4c4ccccc4F)ncc23)ccn1` [Example 184], the figure is 0.171 nM.

For `Cc1cc(-c2n[nH]c3cc(NC(=O)N[C@H]4CN(C)C[C@@H]4c4ccccc4F)ncc23)ccn1` [Example 185], the IC50 is 37.3 nM. Next, `CNC(=O)CNC(=O)Nc1cc2[nH]nc(-c3ccnc(C)c3)c2cn1` [Example 186]: 43.2 nM. With `Cc1cc(-c2n[nH]c3cc(NC(=O)NCC(=O)N(C)C)ncc23)ccn1` [Example 187], the IC50 is 52.3 nM. For the molecule `Cc1cc(-c2n[nH]c3cc(NC(=O)N[C@H]4COC[C@@H]4O)ncc23)ccn1` [Example 188], the IC50 was found to be 15.1 nM.

`Cc1cc(-c2n[nH]c3cc(NC(=O)NCC(O)C(F)F)ncc23)ccn1` (stereo not shown) [Example 189]: the IC50 stood at 10.3 nM. `Cc1cc(-c2n[nH]c3cc(NC(=O)NCC(F)(F)CO)ncc23)ccn1` [Example 190]: the IC50 was 3.81 nM.

In the case of `CC1=NOC(CNC(=O)Nc2cc3[nH]nc(-c4ccnc(C)c4)c3cn2)C1` (stereo not shown) [Example 191], the IC50 was determined as 17.6 nM. With `CC1=NOC(C)(CNC(=O)Nc2cc3[nH]nc(-c4ccnc(C)c4)c3cn2)C1` (stereo not shown) [Example 192], the IC50 worked out at 21.7 nM.

For `Cc1cc(-c2n[nH]c3cc(NC(=O)NCC4(N(C)C)CCC4)ncc23)ccn1` [Example 193], the IC50 is 125 nM. In the case of `Cc1cc(-c2n[nH]c3cc(NC(=O)NC(CO)C(F)(F)F)ncc23)ccn1` (stereo not shown) [Example 194], the concentration for half-maximal inhibition (IC50) worked out at 13.5 nM. Next, `Cc1cc(-c2n[nH]c3cc(NC(=O)NCC(O)C(F)(F)F)ncc23)ccn1` (stereo not shown) [Example 195]: 8.06 nM; `Cc1cc(-c2n[nH]c3cc(NC(=O)NC4CCOC(C)(C)C4)ncc23)ccn1` (stereo not shown) [Example 196]: 23.6 nM. Turning to `CNC1(CNC(=O)Nc2cc3[nH]nc(-c4ccnc(C)c4)c3cn2)CCOC1` (stereo not shown) [Example 197], the half-maximal inhibitory concentration (IC50) was determined as 53.7 nM. Consider `Cc1cc(-c2n[nH]c3cc(NC(=O)NCC4CN(C)CCO4)ncc23)ccn1` (stereo not shown) [Example 198], for which the IC50 is 5.95 nM. On to `Cc1cc(-c2n[nH]c3cc(NC(=O)NCCF)ncc23)ccn1` [Example 199], for which the IC50 came to 4.86 nM.

Regarding `Cc1cc(-c2n[nH]c3cc(NC(=O)NC(C)CO)ncc23)ccn1` (stereo not shown) [Example 200], the IC50 is 25.6 nM.

As to `Cc1cc(-c2n[nH]c3cc(NC(=O)NC4(C#N)CC4)ncc23)ccn1` [Example 201], the IC50 turned out to be 92 nM. As for `COCC(C)NC(=O)Nc1cc2[nH]nc(-c3ccnc(C)c3)c2cn1` (stereo not shown) [Example 202], the figure is 11.6 nM; as for `Cc1cc(-c2n[nH]c3cc(NC(=O)NC(C)(C)CO)ncc23)ccn1` [Example 203], 104 nM; as for `CC[C@H](CO)NC(=O)Nc1cc2[nH]nc(-c3ccnc(C)c3)c2cn1` [Example 204], 24.1 nM.

In the case of `Cc1cc(-c2n[nH]c3cc(NC(=O)N[C@H]4CN(C)C[C@@H]4C)ncc23)ccn1` [Example 205], the IC50 is 15.1 nM. With `Cc1cc(-c2n[nH]c3cc(NC(=O)N[C@@H]4CN(C)C[C@H]4C)ncc23)ccn1` [Example 206], the IC50 was 3.59 nM. Regarding `Cc1cc(-c2n[nH]c3cc(NC(=O)N[C@H]4CN(C)C[C@@H]4c4ccccc4C)ncc23)ccn1` [Example 207], the IC50 is 0.537 nM. Consider `Cc1cc(-c2n[nH]c3cc(NC(=O)N[C@H]4CN(C)C[C@@H]4C4CCCCC4)ncc23)ccn1` [Example 208], for which the IC50 was found to be 6.73 nM. As to `Cc1cc(-c2n[nH]c3cc(NC(=O)N[C@H]4CN(C)C[C@@H]4C4CC4)ncc23)ccn1` [Example 209], the IC50 was found to be 8.27 nM. For the molecule `Cc1cc(-c2n[nH]c3cc(NC(=O)N[C@H]4CN(C)C[C@@H]4C4CCOCC4)ncc23)ccn1` [Example 210], the IC50 came to 96.8 nM. On to `Cc1cc(-c2n[nH]c3cc(NC(=O)N[C@H]4CN(C)C[C@@H]4c4ccc(F)cc4)ncc23)ccn1` [Example 211], for which the IC50 was 0.731 nM. In the case of `Cc1cc(-c2n[nH]c3cc(NC(=O)NCCC4=CCCC4)ncc23)ccn1` [Example 212], the IC50 turned out to be 1.76 nM. As for `CN1C[C@H](NC(=O)Nc2cc3[nH]nc(-c4ccc(F)cc4)c3cn2)[C@@H](c2ccccc2)C1` [Example 213], the figure is 42.1 nM; as for `CN1C[C@@H](NC(=O)Nc2cc3[nH]nc(-c4ccc(F)cc4)c3cn2)[C@H](c2ccccc2)C1` [Example 214], 0.394 nM.

As for `Cc1cc(-c2n[nH]c3cc(NC(=O)N[C@@H]4CN(C)C[C@H]4c4ccccc4C)ncc23)ccn1` [Example 215, 1-((3S,4R)-1-methyl-4-(o-tolyl)pyrrolidin-3-yl)-3-(3-(2-methylpyridin-4-yl)-1H-pyrazolo[4,3-c]pyridin-6-yl)urea], the IC50 is 0.537 nM.
